Results as given in PMC8213057, “Targeting ALK2: An Open Science Approach to Developing Therapeutics for the Treatment of Diffuse Intrinsic Pontine Glioma” (Journal of Medicinal Chemistry, 2020).

What was measured:
CTK/MATK = biological target: T1, CTK/MATK (Homo sapiens, UniProt P42679); test: biochemical; conditions: read-out: % enzyme activity, 1 μM; Run 1, Run 2
T1 sequence (P42679 1-507): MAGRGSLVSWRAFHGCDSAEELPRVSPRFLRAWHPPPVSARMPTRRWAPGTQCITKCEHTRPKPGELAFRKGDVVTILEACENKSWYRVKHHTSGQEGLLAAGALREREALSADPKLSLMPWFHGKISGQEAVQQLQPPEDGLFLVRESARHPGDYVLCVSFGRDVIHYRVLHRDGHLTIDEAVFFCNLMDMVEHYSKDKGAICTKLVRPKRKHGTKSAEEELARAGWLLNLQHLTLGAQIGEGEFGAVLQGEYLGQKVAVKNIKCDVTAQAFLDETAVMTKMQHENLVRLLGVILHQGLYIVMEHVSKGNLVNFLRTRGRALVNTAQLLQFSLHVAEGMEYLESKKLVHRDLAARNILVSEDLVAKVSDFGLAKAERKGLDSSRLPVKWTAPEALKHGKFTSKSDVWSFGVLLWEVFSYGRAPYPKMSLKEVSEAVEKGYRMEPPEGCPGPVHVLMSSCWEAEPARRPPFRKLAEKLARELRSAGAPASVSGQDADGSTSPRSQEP

TXK = biological target: T2, TXK (Homo sapiens, UniProt P42681); conditions: 1 μM; Run 1, Run 2
T2 sequence (P42681 1-527): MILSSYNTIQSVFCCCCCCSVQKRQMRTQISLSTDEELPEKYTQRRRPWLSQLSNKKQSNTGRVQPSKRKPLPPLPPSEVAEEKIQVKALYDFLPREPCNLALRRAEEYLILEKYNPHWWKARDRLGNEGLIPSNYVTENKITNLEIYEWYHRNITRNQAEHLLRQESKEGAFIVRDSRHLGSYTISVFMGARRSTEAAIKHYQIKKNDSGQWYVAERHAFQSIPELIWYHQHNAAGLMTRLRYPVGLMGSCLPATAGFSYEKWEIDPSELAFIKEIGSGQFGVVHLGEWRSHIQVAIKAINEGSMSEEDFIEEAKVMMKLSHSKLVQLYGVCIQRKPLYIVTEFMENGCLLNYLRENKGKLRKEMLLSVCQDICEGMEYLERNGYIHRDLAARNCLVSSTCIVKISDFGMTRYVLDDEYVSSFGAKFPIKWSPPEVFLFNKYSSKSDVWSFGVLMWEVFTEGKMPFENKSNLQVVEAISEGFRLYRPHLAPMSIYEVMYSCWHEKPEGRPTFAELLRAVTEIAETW

CK1epsilon = CK1epsilon (Homo sapiens, UniProt P49674); test: biochemical; conditions: read-out: % enzyme activity, 1 μM; Run 1, Run 2
Sequence of CK1epsilon (P49674 whole entry): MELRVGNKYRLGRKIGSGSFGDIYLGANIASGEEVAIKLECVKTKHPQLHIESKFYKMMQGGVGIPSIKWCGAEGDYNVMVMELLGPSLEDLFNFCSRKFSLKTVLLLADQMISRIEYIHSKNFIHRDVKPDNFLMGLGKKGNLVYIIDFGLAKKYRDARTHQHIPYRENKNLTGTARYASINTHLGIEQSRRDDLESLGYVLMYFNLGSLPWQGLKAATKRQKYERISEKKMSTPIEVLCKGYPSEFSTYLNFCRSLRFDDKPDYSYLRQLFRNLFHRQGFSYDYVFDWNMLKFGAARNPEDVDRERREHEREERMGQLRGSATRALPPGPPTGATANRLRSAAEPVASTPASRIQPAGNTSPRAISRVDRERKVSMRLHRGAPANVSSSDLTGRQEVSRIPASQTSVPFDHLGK

ARAF = biological target: T3, ARAF (Homo sapiens, UniProt P10398); test: biochemical; conditions: read-out: % enzyme activity, 1 μM; Run 1, Run 2
T3 sequence (P10398 1-606): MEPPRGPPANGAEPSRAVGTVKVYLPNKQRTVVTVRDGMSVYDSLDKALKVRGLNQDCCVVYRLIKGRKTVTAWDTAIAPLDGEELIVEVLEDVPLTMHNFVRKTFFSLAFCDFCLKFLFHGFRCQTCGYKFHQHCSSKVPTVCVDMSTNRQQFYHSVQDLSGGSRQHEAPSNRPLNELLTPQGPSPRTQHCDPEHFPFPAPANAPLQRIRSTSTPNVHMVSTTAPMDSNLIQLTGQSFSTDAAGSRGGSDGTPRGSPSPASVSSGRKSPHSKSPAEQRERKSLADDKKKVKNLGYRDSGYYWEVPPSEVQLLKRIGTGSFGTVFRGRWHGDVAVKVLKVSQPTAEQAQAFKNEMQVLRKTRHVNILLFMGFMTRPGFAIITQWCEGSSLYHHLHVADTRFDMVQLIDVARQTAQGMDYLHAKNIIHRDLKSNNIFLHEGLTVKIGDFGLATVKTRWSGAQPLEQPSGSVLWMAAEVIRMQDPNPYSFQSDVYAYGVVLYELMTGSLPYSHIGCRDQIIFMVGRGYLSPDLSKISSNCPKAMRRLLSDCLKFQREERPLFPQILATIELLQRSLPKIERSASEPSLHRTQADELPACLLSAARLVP

GRK5 = GRK5 (Homo sapiens, UniProt P34947); test: biochemical; conditions: read-out: % enzyme activity, 1 μM; Run 1, Run 2
Sequence of GRK5 (P34947 whole entry): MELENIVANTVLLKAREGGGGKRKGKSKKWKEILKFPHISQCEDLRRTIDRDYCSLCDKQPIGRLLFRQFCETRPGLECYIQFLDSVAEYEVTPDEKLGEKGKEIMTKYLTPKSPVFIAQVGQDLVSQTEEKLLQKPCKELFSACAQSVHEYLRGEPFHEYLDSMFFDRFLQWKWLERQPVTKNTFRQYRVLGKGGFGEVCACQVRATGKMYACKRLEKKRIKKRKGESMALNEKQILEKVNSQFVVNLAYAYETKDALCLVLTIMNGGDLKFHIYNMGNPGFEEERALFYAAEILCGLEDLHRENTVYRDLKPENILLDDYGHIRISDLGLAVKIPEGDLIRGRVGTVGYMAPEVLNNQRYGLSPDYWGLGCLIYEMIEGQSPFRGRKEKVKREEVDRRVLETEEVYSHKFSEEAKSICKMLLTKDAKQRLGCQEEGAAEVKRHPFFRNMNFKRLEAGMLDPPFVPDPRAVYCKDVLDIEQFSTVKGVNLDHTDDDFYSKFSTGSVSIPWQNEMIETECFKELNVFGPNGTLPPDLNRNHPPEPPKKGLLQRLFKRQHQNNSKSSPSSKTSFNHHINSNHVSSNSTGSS

ACK1 = ACK1 (Homo sapiens, UniProt Q07912); conditions: 1 μM; Run 1, Run 2
Sequence of ACK1 (Q07912 whole entry): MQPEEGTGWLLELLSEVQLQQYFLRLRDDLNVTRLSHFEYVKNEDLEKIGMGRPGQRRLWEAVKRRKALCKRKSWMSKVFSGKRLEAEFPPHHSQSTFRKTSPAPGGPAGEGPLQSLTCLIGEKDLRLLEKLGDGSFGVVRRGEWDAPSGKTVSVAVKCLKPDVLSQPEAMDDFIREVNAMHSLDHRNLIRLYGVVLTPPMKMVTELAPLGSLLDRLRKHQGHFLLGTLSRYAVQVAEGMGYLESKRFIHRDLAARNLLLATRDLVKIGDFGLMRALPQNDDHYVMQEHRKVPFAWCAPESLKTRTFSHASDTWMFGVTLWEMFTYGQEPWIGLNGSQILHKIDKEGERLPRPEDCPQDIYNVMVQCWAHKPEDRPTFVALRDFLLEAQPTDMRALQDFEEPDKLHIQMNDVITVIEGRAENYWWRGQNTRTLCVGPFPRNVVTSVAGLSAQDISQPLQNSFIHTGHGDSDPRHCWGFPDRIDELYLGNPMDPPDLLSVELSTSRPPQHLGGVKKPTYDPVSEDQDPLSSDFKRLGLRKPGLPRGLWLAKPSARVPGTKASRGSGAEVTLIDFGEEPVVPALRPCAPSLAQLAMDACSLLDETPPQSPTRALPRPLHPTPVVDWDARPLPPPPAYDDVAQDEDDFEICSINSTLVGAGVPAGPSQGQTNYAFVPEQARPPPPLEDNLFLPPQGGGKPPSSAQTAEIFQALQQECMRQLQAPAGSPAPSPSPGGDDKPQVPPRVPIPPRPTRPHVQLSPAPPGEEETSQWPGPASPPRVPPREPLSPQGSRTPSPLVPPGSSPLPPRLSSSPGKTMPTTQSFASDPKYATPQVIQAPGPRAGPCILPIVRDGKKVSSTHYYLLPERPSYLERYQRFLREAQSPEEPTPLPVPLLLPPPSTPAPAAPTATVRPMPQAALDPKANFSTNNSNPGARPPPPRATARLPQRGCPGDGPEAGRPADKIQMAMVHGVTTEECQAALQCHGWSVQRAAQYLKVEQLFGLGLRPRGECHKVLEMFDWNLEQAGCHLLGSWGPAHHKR

SGK3/SGKL = biological target: T4, SGK3/SGKL (Homo sapiens, UniProt Q96BR1); test: biochemical; conditions: read-out: % enzyme activity, 1 μM; Run 1, Run 2
T4 sequence (Q96BR1 1-496): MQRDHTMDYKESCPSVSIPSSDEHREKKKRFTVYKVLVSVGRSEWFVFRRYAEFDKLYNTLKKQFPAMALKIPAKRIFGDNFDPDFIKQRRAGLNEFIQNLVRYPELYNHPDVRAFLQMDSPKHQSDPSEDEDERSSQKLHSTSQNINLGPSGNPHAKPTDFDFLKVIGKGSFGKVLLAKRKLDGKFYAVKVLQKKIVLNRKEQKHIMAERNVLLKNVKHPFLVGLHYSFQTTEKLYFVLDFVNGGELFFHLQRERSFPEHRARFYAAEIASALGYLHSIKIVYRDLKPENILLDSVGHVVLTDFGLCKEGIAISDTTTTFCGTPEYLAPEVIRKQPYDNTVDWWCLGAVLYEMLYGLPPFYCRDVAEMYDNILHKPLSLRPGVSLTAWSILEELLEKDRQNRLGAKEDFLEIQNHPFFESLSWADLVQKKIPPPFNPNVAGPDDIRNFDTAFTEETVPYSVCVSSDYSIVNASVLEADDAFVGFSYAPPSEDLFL

MYLK4 = biological target: T5, MYLK4 (Homo sapiens, UniProt Q86YV6); test: biochemical; conditions: read-out: % enzyme activity, 1 μM; Run 1, Run 2
T5 sequence (Q86YV6 1-388): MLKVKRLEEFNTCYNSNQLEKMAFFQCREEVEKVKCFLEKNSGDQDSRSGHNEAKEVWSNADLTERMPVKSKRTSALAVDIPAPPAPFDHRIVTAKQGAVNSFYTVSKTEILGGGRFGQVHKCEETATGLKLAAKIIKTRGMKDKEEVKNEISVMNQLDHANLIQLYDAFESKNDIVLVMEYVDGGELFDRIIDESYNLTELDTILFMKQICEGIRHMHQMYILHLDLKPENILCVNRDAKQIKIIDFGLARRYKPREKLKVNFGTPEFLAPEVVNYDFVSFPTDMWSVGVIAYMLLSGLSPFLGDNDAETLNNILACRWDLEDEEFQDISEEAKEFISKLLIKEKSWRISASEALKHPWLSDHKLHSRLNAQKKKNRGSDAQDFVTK

STK16 = STK16 (Homo sapiens, UniProt O75716); test: biochemical; conditions: read-out: % enzyme activity, 1 μM; Run 1, Run 2
Sequence of STK16 (O75716 whole entry): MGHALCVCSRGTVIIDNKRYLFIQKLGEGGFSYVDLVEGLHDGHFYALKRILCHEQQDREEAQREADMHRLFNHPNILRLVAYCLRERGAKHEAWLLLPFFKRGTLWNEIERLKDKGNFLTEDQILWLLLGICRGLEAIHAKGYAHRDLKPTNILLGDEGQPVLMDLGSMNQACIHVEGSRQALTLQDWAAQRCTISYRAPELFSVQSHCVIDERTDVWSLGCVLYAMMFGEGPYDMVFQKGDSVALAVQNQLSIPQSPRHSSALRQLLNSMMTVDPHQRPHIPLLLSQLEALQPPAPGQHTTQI

ABL1 = ABL1 (Homo sapiens, UniProt P00519); conditions: 1 μM; Run 1, Run 2
Sequence of ABL1 (P00519 whole entry): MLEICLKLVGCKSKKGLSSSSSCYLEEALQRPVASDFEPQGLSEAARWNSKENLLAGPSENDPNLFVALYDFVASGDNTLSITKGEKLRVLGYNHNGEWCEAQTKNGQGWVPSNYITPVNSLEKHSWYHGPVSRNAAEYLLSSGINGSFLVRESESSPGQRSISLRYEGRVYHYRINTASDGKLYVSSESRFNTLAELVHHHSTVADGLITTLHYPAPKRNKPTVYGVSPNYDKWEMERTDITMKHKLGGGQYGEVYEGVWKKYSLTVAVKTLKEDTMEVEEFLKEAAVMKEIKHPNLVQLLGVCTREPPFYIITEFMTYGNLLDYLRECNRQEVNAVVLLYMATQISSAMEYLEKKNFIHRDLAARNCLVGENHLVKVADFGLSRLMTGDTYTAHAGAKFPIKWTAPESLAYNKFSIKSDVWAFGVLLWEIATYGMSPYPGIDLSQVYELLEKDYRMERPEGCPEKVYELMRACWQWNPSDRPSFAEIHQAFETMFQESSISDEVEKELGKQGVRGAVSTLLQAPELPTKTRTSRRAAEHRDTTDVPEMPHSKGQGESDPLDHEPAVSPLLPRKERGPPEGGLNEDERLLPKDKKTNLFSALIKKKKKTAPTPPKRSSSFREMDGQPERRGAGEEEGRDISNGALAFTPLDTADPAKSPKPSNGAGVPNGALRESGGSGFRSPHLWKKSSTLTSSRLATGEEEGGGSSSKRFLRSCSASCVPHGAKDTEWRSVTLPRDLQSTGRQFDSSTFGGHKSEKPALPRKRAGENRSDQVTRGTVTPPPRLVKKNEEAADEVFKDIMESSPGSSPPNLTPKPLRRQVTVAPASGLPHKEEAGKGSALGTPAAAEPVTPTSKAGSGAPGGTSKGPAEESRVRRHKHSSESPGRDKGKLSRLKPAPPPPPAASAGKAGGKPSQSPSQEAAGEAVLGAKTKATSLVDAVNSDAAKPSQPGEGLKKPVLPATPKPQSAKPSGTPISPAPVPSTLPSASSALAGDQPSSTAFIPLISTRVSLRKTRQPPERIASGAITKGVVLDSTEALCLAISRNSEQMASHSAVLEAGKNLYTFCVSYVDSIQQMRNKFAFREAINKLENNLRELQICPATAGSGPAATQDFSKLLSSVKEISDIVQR

Compound: COc1cc(-c2cncc(-c3ccc(N4C[C@@H](C)N(C)[C@@H](C)C4)cc3)c2C)cc(F)c1C(N)=O [Compound 26c, 2-Fluoro-6-methoxy-4-(4-methyl-5-(4-((3R,5S)-3,4,5-trimethylpiperazin-1-yl)phenyl)pyridin-3-yl)benzamide]
- remaining activity at 1 µM (CTK/MATK): 99.2%
- % enzyme activity (TXK): 95.85%
- remaining activity at 1 µM (CK1epsilon): 94.7%
- remaining activity at 1 µM (ARAF): 48.1%
- remaining activity at 1 µM (GRK5): 93.1%
- % enzyme activity (ACK1): 76.07%
- remaining activity at 1 µM (SGK3/SGKL): 94.8%
- remaining activity at 1 µM (MYLK4): 104%
- remaining activity at 1 µM (STK16): 101%
- % enzyme activity (ABL1): 82.07%

Compound: COc1cc(-c2cncc(-c3ccc(N4CCN(C)CC4)cc3)c2C)cc(F)c1C(N)=O [Compound 26a, 2-Fluoro-6-methoxy-4-(4-methyl-5-(4-(4-methylpiperazin-1-yl)phenyl)pyridin-3-yl)benzamide]
- remaining activity at 1 µM (CTK/MATK): 95.2%
- % enzyme activity (TXK): 100.80%
- remaining activity at 1 µM (CK1epsilon): 93.8%
- remaining activity at 1 µM (ARAF): 29.3%
- remaining activity at 1 µM (GRK5): 104%
- % enzyme activity (ACK1): 65.46%
- remaining activity at 1 µM (SGK3/SGKL): 103%
- remaining activity at 1 µM (MYLK4): 97.7%
- remaining activity at 1 µM (STK16): 107%
- % enzyme activity (ABL1): 75.12%
